Assay results: ChEMBL document CHEMBL1137335, “Multivalent effects of RGD peptides obtained by nanoparticle display” (J Med Chem, 2006)
Positions of bridges follow the written chain, without caps; N, C: chain ends. Residues, ends and D or L forms follow the SMILES beside them. *: point of attachment. 5FAM = O=C1OC2(c3ccc(O)cc3Oc3cc(O)ccc32)c2ccc(C(=O)*)cc21

Experiments:
[1] = tested on: BT-20; assay: Level of peptide binding to human BT20 cells indicating presence of integrin alphaVbeta3; format: functional
[2] = tested on: 9L; assay: Level of peptide binding to rat 9L cells indicating presence of integrin alphaVbeta3; format: functional
[3] = tested on: HUVEC; assay: Uptake in human HUVEC; format: functional, cell-based
[4] = tested on: HUVEC; assay: Antiadhesive activity against human HUVEC; format: functional, cell-based
[5] = tested on: BT-20; assay: Uptake in human BT20 cells; format: functional, cell-based
[6] = tested on: BT-20; assay: Antiadhesive activity against human BT20 cells; format: functional, cell-based

In the case of NCC(=O)N[C@@H](CO)C(=O)N[C@@H](CO)C(=O)N[C@@H](CCCCNC(=O)c1ccc2c(c1)C(=O)OC21c2ccc(O)cc2Oc2cc(O)ccc21)C(=O)NCC(=O)NCC(=O)NCC(=O)N[C@H]1CSSC[C@@H](C(=O)O)NC(=O)[C@H](CC(=O)O)NC(=O)CNC(=O)[C@H](CCCN=C(N)N)NC1=O (H-GSSK(5FAM)GGGCRGDC-OH; disulfide 8-12), the Activity [1] is reported as 0.82 pmol, the Activity [2] is reported as 0.16 pmol and the EC50 [3] is reported as 6 µM. The IC50 [4] was 0.76 µM, the EC50 [5] was 1.2 µM and the IC50 [6] was 130 µM.
